The values that follow are results of earlier work, collected in PubChem BioAssay AID1259409 (Chemical Carcinogenesis Research Information System (CCRIS), 2018).

SMILES strings stand for the structures.

This series concerns rodent chemically induced tumor inhibition, incidence and multiplicity. The experiment in a line: CCRIS tumor inhibitor studies.

`CC1=C(/C=C/C(C)=C/C=C/C(C)=C/C(=O)NCCCO)C(C)(C)CCC1`: the “tumour outcome (control, treated, inhibition, significance)” value by setting is: (Carcinogen: N-BUTYL-N-(4-HYDROXYBUTYL)NITROSAMINE, 3817-11-6, Dose [Inhibitor]: 1.5 MMOL/KG/D IN DIET FOR 108 D STARTING 1 WK POST CARCINOGEN TREATMENT (STUDY DURATION: 171 D), Route [Inhibitor]: ORAL, Species: MOUSE, Strain/Sex: BDF/MALE, Target Tissue: Type of Lesion: URINARY BLADDER: TRANSITIONAL CELL CARCINOMA, Dose [Carcinogen]: 5 MG 2/WK FOR 9 WK, Promoter: NONE USED) 31/55 (56%), 28/54 (51%), 9%, not significant; (Carcinogen: N-NITROSOBIS(2-OXOPROPYL)AMINE, 60599-38-4, Dose [Inhibitor]: 0.25 MMOL/KG OF DIET FOR 357 D STARTING 2 WK AFTER LAST CARCINOGEN DOSE AND INTERRUPTED BY A 1 WK REST PERIOD OF VEHICLE, Route [Inhibitor]: ORAL, Species: HAMSTER, Strain/Sex: SYRIAN/FEMALE, Target Tissue: Type of Lesion: LIVER: HEPATOCELLULAR CARCINOMA, Dose [Carcinogen]: 20 MG/KG INJECTION GIVEN TWICE 1 WK APART, Promoter: NONE USED) 5%, 42%, -740%, not calculated; (Carcinogen: N-NITROSOBIS(2-OXOPROPYL)AMINE, 60599-38-4, Dose [Inhibitor]: 0.25 MMOL/KG OF DIET FOR 357 D STARTING 2 WK AFTER LAST CARCINOGEN DOSE AND INTERRUPTED BY A 1 WK REST PERIOD OF VEHICLE, Route [Inhibitor]: ORAL, Species: HAMSTER, Strain/Sex: SYRIAN/FEMALE, Target Tissue: Type of Lesion: PANCREAS: CARCINOMA, Dose [Carcinogen]: 20 MG/KG INJECTION GIVEN TWICE 1 WK APART, Promoter: NONE USED) 38%, 32%, 16%, not calculated; (Carcinogen: N-NITROSOBIS(2-OXOPROPYL)AMINE, 60599-38-4, Dose [Inhibitor]: 0.25 MMOL/KG OF DIET FOR 357 D STARTING 2 WK AFTER LAST CARCINOGEN DOSE AND INTERRUPTED BY A 1 WK REST PERIOD OF VEHICLE, Route [Inhibitor]: ORAL, Species: HAMSTER, Strain/Sex: SYRIAN/MALE, Target Tissue: Type of Lesion: LIVER: HEPATOCELLULAR CARCINOMA, Dose [Carcinogen]: 20 MG/KG INJECTION GIVEN TWICE 1 WK APART, Promoter: NONE USED) 7%, 0%, 100%, not calculated; (Carcinogen: N-NITROSOBIS(2-OXOPROPYL)AMINE, 60599-38-4, Dose [Inhibitor]: 0.25 MMOL/KG OF DIET FOR 357 D STARTING 2 WK AFTER LAST CARCINOGEN DOSE AND INTERRUPTED BY A 1 WK REST PERIOD OF VEHICLE, Route [Inhibitor]: ORAL, Species: HAMSTER, Strain/Sex: SYRIAN/MALE, Target Tissue: Type of Lesion: PANCREAS: CARCINOMA, Dose [Carcinogen]: 20 MG/KG INJECTION GIVEN TWICE 1 WK APART, Promoter: NONE USED) 34%, 27%, 21%, not calculated; (Carcinogen: N-NITROSOBIS(2-OXOPROPYL)AMINE, 60599-38-4, Dose [Inhibitor]: 0.5 MMOL/KG OF DIET FOR 357 D STARTING 2 WK AFTER LAST CARCINOGEN DOSE AND INTERRUPTED BY A 1 WK REST PERIOD OF VEHICLE-, Route [Inhibitor]: ORAL, Species: HAMSTER, Strain/Sex: SYRIAN/FEMALE, Target Tissue: Type of Lesion: LIVER: HEPATOCELLULAR CARCINOMA, Dose [Carcinogen]: 20 MG/KG INJECTION GIVEN TWICE 1 WK APART, Promoter: NONE USED) 5%, 9%, -80%, not calculated. In addition, the “tumour outcome (control, treated, inhibition, significance)” value by setting is: (Carcinogen: N-NITROSOBIS(2-OXOPROPYL)AMINE, 60599-38-4, Dose [Inhibitor]: 0.5 MMOL/KG OF DIET FOR 357 D STARTING 2 WK AFTER LAST CARCINOGEN DOSE AND INTERRUPTED BY A 1 WK REST PERIOD OF VEHICLE-, Route [Inhibitor]: ORAL, Species: HAMSTER, Strain/Sex: SYRIAN/FEMALE, Target Tissue: Type of Lesion: PANCREAS: CARCINOMA, Dose [Carcinogen]: 20 MG/KG INJECTION GIVEN TWICE 1 WK APART, Promoter: NONE USED) 38%, 27%, 29%, not calculated; (Carcinogen: N-NITROSOBIS(2-OXOPROPYL)AMINE, 60599-38-4, Dose [Inhibitor]: 0.5 MMOL/KG OF DIET FOR 357 D STARTING 2 WK AFTER LAST CARCINOGEN DOSE AND INTERRUPTED BY A 1 WK REST PERIOD OF VEHICLE-, Route [Inhibitor]: ORAL, Species: HAMSTER, Strain/Sex: SYRIAN/MALE, Target Tissue: Type of Lesion: LIVER: HEPATOCELLULAR CARCINOMA, Dose [Carcinogen]: 20 MG/KG INJECTION GIVEN TWICE 1 WK APART, Promoter: NONE USED) 7%, 12%, -71%, not calculated; (Carcinogen: N-NITROSOBIS(2-OXOPROPYL)AMINE, 60599-38-4, Dose [Inhibitor]: 0.5 MMOL/KG OF DIET FOR 357 D STARTING 2 WK AFTER LAST CARCINOGEN DOSE AND INTERRUPTED BY A 1 WK REST PERIOD OF VEHICLE-, Route [Inhibitor]: ORAL, Species: HAMSTER, Strain/Sex: SYRIAN/MALE, Target Tissue: Type of Lesion: PANCREAS: CARCINOMA, Dose [Carcinogen]: 20 MG/KG INJECTION GIVEN TWICE 1 WK APART, Promoter: NONE USED) 34%, 40%, -18%, not calculated.

In the case of `O=C(CBr)c1ccc(Br)cc1`, the “tumour outcome (control, treated, inhibition, significance)” value (Carcinogen: 7,12-DIMETHYLBENZ[A]ANTHRACENE, 57-97-6, Dose [Inhibitor]: 10 UMOL APPLIED 30-40 MIN BEFORE EACH TPA TREATMENT AND CONCURRENTLY WITH TPA (STUDY DURATION: 18 WK), Route [Inhibitor]: DERMAL, Species: MOUSE, Strain/Sex: CD-1/FEMALE, Target Tissue: Type of Lesion: SKIN: PAPILLOMA, Dose [Carcinogen]: 200 NMOL ONCE, Promoter: 12-O-TETRADECANOYLPHORBOL-13-ACETATE, 16561-29-8) was 96%, 57%, 41%, not calculated; the “tumour outcome (control, treated, inhibition, significance)” value (Carcinogen: N-NITROSODIETHYLAMINE, 55-18-5, 2-ACETYLAMINOFLUORENE, 53-93-6, CARBON TETRACHLORIDE, 56-23-5, Carcinogen: N-NITROSODIETHYLAMINE, 55-18-5, 2-ACETYLAMINOFLUORENE, 53-93-6, CARBON TETRACHLORIDE, 56-23-5, Dose [Inhibitor]: 0, 0.75% IN DIET FOR 29 WK ADMINISTERED TO RATS BEARING PERSISTENT NODULES FOLLOWING CARCINOGEN TREATMENT (STUDY DURATIO, Route [Inhibitor]: ORAL, Species: RAT, Strain/Sex: F344/MALE, Target Tissue: Type of Lesion: LIVER: HEPATOCELLULAR CARCINOMA, Dose [Carcinogen]: 200 MG/KG BW DEN ONCE, 0.002% 2-AAF IN DIET FOR 2 WK, 1 MG/KG BW CCL4 MIDWAY IN 2-AAF TREATMENT, Dose [Carcinogen]: 200 MG/KG BW DEN ONCE, 0.002% 2-AAF IN DIET FOR 2 WK, 1 MG/KG BW CCL4 MIDWAY IN 2-AAF TREATMENT, Promoter: NONE USED) is recorded as 7/8 (88%), 11/11 (100%), -12%, not significant; the “tumour outcome (control, treated, inhibition, significance)” value (Carcinogen: N-NITROSODIETHYLAMINE, 55-18-5, 2-ACETYLAMINOFLUORENE, 53-93-6, CARBON TETRACHLORIDE, 56-23-5, Carcinogen: N-NITROSODIETHYLAMINE, 55-18-5, 2-ACETYLAMINOFLUORENE, 53-93-6, CARBON TETRACHLORIDE, 56-23-5, Dose [Inhibitor]: 0, 0.75% IN DIET FOR 29 WK ADMINISTERED TO RATS BEARING PERSISTENT NODULES FOLLOWING CARCINOGEN TREATMENT (STUDY DURATIO, Route [Inhibitor]: ORAL, Species: RAT, Strain/Sex: F344/MALE, Target Tissue: Type of Lesion: LIVER: HEPATOCELLULAR CARCINOMA, Dose [Carcinogen]: 200 MG/KG BW DEN ONCE, 0.002% 2-AAF IN DIET FOR 2 WK, 1 ML/KG BW CCL4 MIDWAY IN 2-AAF TREATMENT, Dose [Carcinogen]: 200 MG/KG BW DEN ONCE, 0.002% 2-AAF IN DIET FOR 2 WK, 1 ML/KG BW CCL4 MIDWAY IN 2-AAF TREATMENT, Promoter: PHENOBARBITAL, 50-06-6) is 12/12 (100%), 13/14 (93%), 7%, not significant.

For `[K+]`, the outcome (Carcinogen: N-METHYL-N-NITROSOUREA [684-93-5], Dose [Inhibitor]: 0.05% IN DRINKING WATER, 2 WKS BEFORE CARCINOGEN AND FOR 26 WKS AFTER, Route [Inhibitor]: DRINKING WATER, Species: RAT, Strain/Sex: SPRAGUE-DAWLEY/FEMALE, Target Tissue: Type of Lesion: MAMMARY GLAND: CARCINOMA, Dose [Carcinogen]: 50 MG/KG BW ONCE AT 7 WKS OF AGE (IN SALINE SOLUTION)) was 8/11 (73%) vs 10/11 (94%) at 16 wks.

In the case of `COc1cc2c(c(OC)c1OC)-c1c(cc3c(c1OC)OCO3)C[C@H](C)[C@@](C)(O)C2`, the “tumour outcome (control, treated, inhibition, significance)” value (Carcinogen: 7,12-DIMETHYLBENZ[A]ANTHRACENE, 57-97-6, Dose [Inhibitor]: 0, 5 UMOL IN 100 µL ACETONE 30 MIN PRIOR EACH PROMOTER DOSE 2/WK FOR 18 WK BEGINNING 7 D POST CARCINOGEN DOSE (STUDY DUR, Route [Inhibitor]: DERMAL, Species: MOUSE, Strain/Sex: ICR/FEMALE, Target Tissue: Type of Lesion: SKIN: PAPILLOMA, Dose [Carcinogen]: 50 UG IN 100 µL ACETONE ONCE, Promoter: 12-O-TETRADECANOYLPHORBOL-13-ACETATE, 16561-29-8) is recorded as 100%, 50%, 50%, not calculated.
